Results: patent publication US11753407B2, “Compounds for treating spinal muscular atrophy” (PTC Therapeutics, Inc., priority 2012, dated 2023)

Experiments:
[1] = system: SMN2 minigene mRNA (SMN2-A minigene) in HEK293H cells; test: SMN2 minigene mRNA splicing RT-qPCR assay in cultured cells; format: cell-based, human; details: Homo sapiens, HEK293-H; concentration increasing full length SMN2 mRNA 1.5-fold relative to vehicle-treated cells; HEK293H cells with SMN2-A minigene, 24 hours, 7-point concentration data; read-out: EC1.5x for production of full length SMN2 mRNA
How it was run: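 HEK293H cells stably carrying the SMN2-A minigene were treated for 24 h at 37 °C with a 7-point, 3.16-fold dilution series of compound. Multiplex RT-qPCR measured exon 7-containing minigene FL mRNA against GAPDH, expressed relative to vehicle by modified ΔΔCt; the EC1.5× is the concentration giving a 1.5-fold increase.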

[2] = system: Smn protein in SMA patient fibroblast cells (GM03813); test: Smn protein assay in cultured cells (SMN HTRF); format: cell-based, human; details: SMA patient fibroblast cells, 48 hours; for EC1.5x for Smn protein expression: 7-point concentration curve, SMN HTRF, concentration producing 1.5 times Smn protein vs DMSO vehicle control; for maximum fold (Fold) increase of Smn protein: 7-point concentration data, fold relative to vehicle control
How it was run: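 SMA patient fibroblasts (5,000 cells/well, DMEM-10% FBS) were treated for 48 h at 37 °C with a 7-point, 3.16-fold dilution series in triplicate. RIPA lysates were probed by HTRF (anti-SMN d2/kryptate, overnight, room temperature), reading 665/620 nm. EC1.5× is the concentration giving 1.5-fold Smn over DMSO vehicle.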

Row | Compound | EC (1.5-fold increase) [1] | EC1.5x for Smn protein expression [2] | maximum fold (Fold) increase of Smn protein [2] | melting point
1 | Cc1cn2cc(-c3cc(=O)n4cc(C5CCN(C(C)C)CC5)ccc4n3)cc(C)c2n1 [Compound 616, 2-(2,8-dimethylimidazo[1,2-a]pyridin-6-yl)-7-[1-(propan-2-yl)piperidin-4-yl]-4H-pyrido[1,2-a]pyrimidin-4-one] | < 0.1 µM | **** (an EC1.5x≤0.3 μM is indicated by four stars (****)) | ***** (a fold increase >1.65 is indicated by five stars (*****)) | 242 to 244 °C
2 | CCCN1CCN(c2ccc3nc(-c4cc5c(CC)nc(C)cn5n4)cc(=O)n3c2)CC1 [Compound 618, 2-(4-ethyl-6-methylpyrazolo[1,5-a]pyrazin-2-yl)-7-(4-propylpiperazin-1-yl)-4H-pyrido[1,2-a]pyrimidin-4-one] | < 0.1 µM | **** (an EC1.5x≤0.3 μM is indicated by four stars (****)) | ***** (a fold increase >1.65 is indicated by five stars (*****)) | 243 to 245 °C
3 | CCc1nc(C)cn2nc(-c3cc(=O)n4cc(N5CCN(C(C)C)CC5)ccc4n3)cc12 [Compound 619, 2-(4-ethyl-6-methylpyrazolo[1,5-a]pyrazin-2-yl)-7-[4-(propan-2-yl)piperazin-1-yl]-4H-pyrido[1,2-a]pyrimidin-4-one] | 0.1 to 0.3 µM | *** (an EC1.5× between >0.3 μM and ≤1 μM is indicated by three stars (***)) | ***** (a fold increase >1.65 is indicated by five stars (*****)) | 255 to 258 °C
4 | CCc1nc(C)cn2nc(-c3cc(=O)n4cc(N5CCN(C6CC6)CC5)ccc4n3)cc12 [Compound 620, 7-(4-cyclopropylpiperazin-1-yl)-2-(4-ethyl-6-methylpyrazolo[1,5-a]pyrazin-2-yl)-4H-pyrido[1,2-a]pyrimidin-4-one] | 0.3 to 1 µM | ** (an EC1.5× between >1 μM and ≤3 μM is indicated by two stars (**)) | *** (a fold increase between >1.35 and ≤1.5 is indicated by three stars (***)) | 258 to 260 °C
5 | CCc1nc(C)cn2nc(-c3cc(=O)n4cc(N5CCN(C6CCC6)CC5)ccc4n3)cc12 [Compound 621, 7-(4-cyclobutylpiperazin-1-yl)-2-(4-ethyl-6-methylpyrazolo[1,5-a]pyrazin-2-yl)-4H-pyrido[1,2-a]pyrimidin-4-one] | 0.3 to 1 µM | **** (an EC1.5x≤0.3 μM is indicated by four stars (****)) | ***** (a fold increase >1.65 is indicated by five stars (*****)) | 275 to 278 °C
6 | CCc1nc(C)cn2nc(-c3cc(=O)n4cc(N5CCN(C6COC6)CC5)ccc4n3)cc12 [Compound 622, 2-(4-ethyl-6-methylpyrazolo[1,5-a]pyrazin-2-yl)-7-[4-(oxetan-3-yl)piperazin-1-yl]-4H-pyrido[1,2-a]pyrimidin-4-one] | 1 to 3 µM | ** (an EC1.5× between >1 μM and ≤3 μM is indicated by two stars (**)) | **** (a fold increase between >1.5 and ≤1.65 is indicated by four stars (****)) | 205 to 208 °C
7 | CCN1CCC2CN(c3ccc4nc(-c5cc6c(C)nc(C)cn6n5)cc(=O)n4c3)CCC21 (stereo not shown) [Compound 623, 2-(4,6-dimethylpyrazolo[1,5-a]pyrazin-2-yl)-7-(1-ethyloctahydro-5H-pyrrolo[3,2-c]pyridin-5-yl)-4H-pyrido[1,2-a]pyrimidin-4-one] | < 0.1 µM | **** (an EC1.5x≤0.3 μM is indicated by four stars (****)) | ***** (a fold increase >1.65 is indicated by five stars (*****)) | 176 to 178 °C
8 | Cc1cn2nc(-c3cc(=O)n4cc(N5CCC6C(CCN6CCO)C5)ccc4n3)cc2c(C)n1 (stereo not shown) [Compound 624, 2-(4,6-dimethylpyrazolo[1,5-a]pyrazin-2-yl)-7-[1-(2-hydroxyethyl)octahydro-5H-pyrrolo[3,2-c]pyridin-5-yl]-4H-pyrido[1,2-a]pyrimidin-4-one] | < 0.1 µM | **** (an EC1.5x≤0.3 μM is indicated by four stars (****)) | ***** (a fold increase >1.65 is indicated by five stars (*****)) | 184 to 187 °C
9 | Cc1cn2cc(-c3cc(=O)n4cc(C5CCN(C(C)C)CC5)ncc4n3)ccc2n1 [Compound 627, 2-(2-methylimidazo[1,2-a]pyridin-6-yl)-7-[1-(propan-2-yl)piperidin-4-yl]-4H-pyrazino[1,2-a]pyrimidin-4-one] | 0.1 to 0.3 µM | ** (an EC1.5× between >1 μM and ≤3 μM is indicated by two stars (**)) | **** (a fold increase between >1.5 and ≤1.65 is indicated by four stars (****)) | 229 to 231 °C
10 | Cc1cn2cc(-c3cc(=O)n4cc(C5CCN(C6CCC6)CC5)ncc4n3)ccc2n1 [Compound 628, 7-(1-cyclobutylpiperidin-4-yl)-2-(2-methylimidazo[1,2-a]pyridin-6-yl)-4H-pyrazino[1,2-a]pyrimidin-4-one] | 0.3 to 1 µM | * (An EC1.5× for Smn protein expression between >3 μM and ≤10 μM is indicated by one star (*)) | **** (a fold increase between >1.5 and ≤1.65 is indicated by four stars (****)) | 249 to 251 °C
11 | CCc1nc(C)cn2nc(-c3cc(=O)n4cc(N5CCN(CC)[C@H](C)C5)ccc4n3)cc12 [Compound 630, 7-[(3R)-4-ethyl-3-methylpiperazin-1-yl]-2-(4-ethyl-6-methylpyrazolo[1,5-a]pyrazin-2-yl)-4H-pyrido[1,2-a]pyrimidin-4-one] | < 0.1 µM | **** (an EC1.5x≤0.3 μM is indicated by four stars (****)) | ***** (a fold increase >1.65 is indicated by five stars (*****)) | 256 to 258 °C
12 | CCCN1CCN(c2ccc3nc(-c4cc5c(CC)nc(C)cn5n4)cc(=O)n3c2)C[C@H]1C [Compound 631, 2-(4-ethyl-6-methylpyrazolo[1,5-a]pyrazin-2-yl)-7-[(3R)-3-methyl-4-propylpiperazin-1-yl]-4H-pyrido[1,2-a]pyrimidin-4-one] | 0.1 to 0.3 µM | *** (an EC1.5× between >0.3 μM and ≤1 μM is indicated by three stars (***)) | ***** (a fold increase >1.65 is indicated by five stars (*****)) | 243 to 245 °C
13 | CCc1nc(C)cn2nc(-c3cc(=O)n4cc(N5CCN(CCO)[C@H](C)C5)ccc4n3)cc12 [Compound 632, 2-(4-ethyl-6-methylpyrazolo[1,5-a]pyrazin-2-yl)-7-[(3R)-4-(2-hydroxyethyl)-3-methylpiperazin-1-yl]-4H-pyrido[1,2-a]pyrimidin-4-one] | < 0.1 µM | **** (an EC1.5x≤0.3 μM is indicated by four stars (****)) | ***** (a fold increase >1.65 is indicated by five stars (*****)) | 238 to 241 °C
